Read-outs that look alike come from different tables or passages of the source.
What was measured:
[1] = tested on: p-SLP-76 (Ser376) in Jurkat cells; assay: pSLP76 Cellular Assay (AlphaLISA SureFire Ultra p-SLP-76 (Ser376), anti-CD3 activated Jurkat cells); type: cell-based; details: pSLP76 (Ser376) AlphaLISA, anti-CD3 activated Jurkat cells, read-out: Cellular Potency
How it was run: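 Read-out is AlphaLISA p-SLP-76 (Ser376) signal at 570 nm in Jurkat lysates, with IC50 fitted by 4-parameter logistic. Cells were starved overnight, exposed 1 h at 37 °C to 22 twofold compound dilutions in HBSS, then activated 45 min with anti-CD3 (0.025 mg/ml stock added).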

HPK1 = HPK1 (Homo sapiens, UniProt Q92918); assay: HPK1 Biochemical Assay (ADP-Glo luminescence; low ATP 10 μM or high ATP 200 μM); details: HPK1 ADP-Glo assay
Sequence of HPK1 (Q92918 whole entry, species assumed): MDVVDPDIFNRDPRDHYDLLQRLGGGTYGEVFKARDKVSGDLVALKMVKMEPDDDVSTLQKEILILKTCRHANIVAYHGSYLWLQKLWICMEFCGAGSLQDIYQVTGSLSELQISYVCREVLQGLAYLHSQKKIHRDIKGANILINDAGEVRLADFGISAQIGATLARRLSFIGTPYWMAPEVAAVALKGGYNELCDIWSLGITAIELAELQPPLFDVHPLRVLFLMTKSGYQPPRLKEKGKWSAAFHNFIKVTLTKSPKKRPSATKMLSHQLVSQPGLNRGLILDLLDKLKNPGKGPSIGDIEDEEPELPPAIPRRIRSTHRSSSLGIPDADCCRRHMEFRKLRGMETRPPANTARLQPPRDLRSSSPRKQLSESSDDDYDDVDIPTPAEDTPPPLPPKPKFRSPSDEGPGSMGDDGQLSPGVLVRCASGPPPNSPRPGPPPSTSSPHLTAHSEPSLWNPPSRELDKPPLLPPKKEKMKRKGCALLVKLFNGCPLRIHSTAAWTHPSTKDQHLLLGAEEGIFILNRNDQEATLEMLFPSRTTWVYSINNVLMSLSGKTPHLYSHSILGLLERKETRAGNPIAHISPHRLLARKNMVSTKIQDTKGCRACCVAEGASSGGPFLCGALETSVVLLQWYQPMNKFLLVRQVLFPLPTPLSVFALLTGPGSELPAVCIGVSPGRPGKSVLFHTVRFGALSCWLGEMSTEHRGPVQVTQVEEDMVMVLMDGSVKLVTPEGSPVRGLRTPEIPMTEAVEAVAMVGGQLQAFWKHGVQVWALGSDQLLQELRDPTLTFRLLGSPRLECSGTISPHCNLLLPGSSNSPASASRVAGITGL

[2] = high ATP (200 μM ATP, 5 nM HPK1), read-out: Biochemical Potency (high ATP)
[3] = low ATP (10 μM ATP, 2 nM HPK1), read-out: Biochemical Potency (low ATP)

| Structure (SMILES) | IC50 ([1]; Homo sapiens) [nM] | IC50 (HPK1; [2]) [nM] | IC50 [1] [nM] | IC50 (HPK1; [3]) [nM] |
| --- | --- | --- | --- | --- |
| Cc1cc(Nc2cc3nc(-c4cccc(C(=O)N[C@H]5CCCOC5)c4)sc3cn2)nc(N2C[C@@H]3C[C@H]2CN3CCO)n1 [Example 541] | 100 to 1000 | < 100 | – | – |
| Cc1cc(Nc2cc3nc(-c4cccc(C(=O)N(C)C5CCCC5)c4)sc3cn2)nc(N2C[C@@H]3C[C@H]2CN3CCO)n1 [Example 544] | < 100 | < 100 | – | – |
| Cc1cc(Nc2cc3nc(-c4cccc(C(=O)NC5CCCC5)c4)sc3cn2)nc(N2C[C@@H]3C[C@H]2CN3CCO)n1 [Example 545] | < 100 | < 100 | – | – |
| Cc1cc(Nc2cc3nc(-c4cccc(C(=O)N5CCOC[C@H]5C)c4)sc3cn2)nc(N2C[C@@H]3C[C@H]2CN3CCO)n1 [Example 547] | 100 to 1000 | < 100 | – | – |
| Cc1cc(Nc2cc3nc(-c4cccc(C(=O)N5CCC[C@@H]5C)c4)sc3cn2)nc(N2C[C@@H]3C[C@H]2CN3CCO)n1 [Example 548] | < 100 | < 100 | – | – |
| CNC(=O)c1cccc(-c2nc3cc(Nc4cc(C)nc(N5C[C@@H]6C[C@H]5CN6CCO)n4)ncc3s2)c1 [Example 549] | 100 to 1000 | < 100 | – | – |
| Cc1cc(Nc2cc3nc(-c4cc(C(=O)N(C)C)cc(C5CC5)c4)sc3cn2)nc(N2C[C@@H]3C[C@H]2CN3CCO)n1 [Example 552] | < 100 | < 100 | – | – |
| Cc1cc(Nc2cc3nc(-c4cccc(C(N)=O)c4)sc3cn2)nc(N2C[C@@H]3C[C@H]2CN3CCO)n1 [Example 553] | 1000 to 5000 | < 100 | – | – |
| Cc1cc(Nc2cc3nc(-c4cc(C#N)cc(C(=O)N(C)C)c4)sc3cn2)nc(N2C[C@@H]3C[C@H]2CN3CCO)n1 [Example 554] | 100 to 1000 | < 100 | – | – |
| Cc1cc(Nc2cc3nc(-c4cccc(C(=O)N(C)CC5CC5)c4)sc3cn2)nc(N2C[C@@H]3C[C@H]2CN3CCO)n1 [Example 558] | < 100 | < 100 | – | – |
| Cc1cc(Nc2cc3nc(-c4cccc(C(=O)N(C)[C@@H](C)CO)c4)sc3cn2)nc(N2C[C@@H]3C[C@H]2CN3CC2CC2)n1 [Example 560] | < 100 | < 100 | – | – |
| Cc1cc(Nc2cc3nc(-c4cccc(C(=O)N(C)[C@@H](C)CO)c4)sc3cn2)nc(N2C[C@@H]3C[C@H]2CN3C)n1 [Example 561] | 100 to 1000 | < 100 | – | – |
| Cc1cc(C(=O)N(C)C)cc(-c2nc3cc(Nc4cc(C)nc(N5C[C@@H]6C[C@H]5CN6CCO)n4)ncc3s2)c1 [Example 562] | < 100 | < 100 | – | – |
| Cc1cc(Nc2cc3nc(-c4cccc(C(=O)N5C[C@H]6C[C@@H]5CO6)c4)sc3cn2)nc(N2C[C@@H]3C[C@H]2CN3CCO)n1 [Example 563] | 100 to 1000 | < 100 | – | – |
| Cc1cc(Nc2cc3nc(-c4cccc(C(=O)N5C[C@@H]6C[C@H]5CO6)c4)sc3cn2)nc(N2C[C@@H]3C[C@H]2CN3CCO)n1 [Example 564] | 100 to 1000 | < 100 | – | – |
| CCN1C[C@@H]2C[C@H]1CN2c1nc(C)cc(Nc2cc3nc(-c4cccc(COC5CC5)c4)sc3cn2)n1 [Example 567] | 100 to 1000 | < 100 | – | – |
| CCN1C[C@@H]2C[C@H]1CN2c1nc(C)cc(Nc2cc3nc(-c4cccc(C(=O)N(C)C5CCN(C(C)=O)CC5)c4)sc3cn2)n1 [Example 568] | 1000 to 5000 | 100 to 1000 | – | – |
| CC(=O)N1CCn2ncc(-c3nc4cc(Nc5cc(C)nc(N6C[C@@H]7C[C@H]6CN7C)n5)ncc4s3)c2C1 [Example 569] | 100 to 1000 | < 100 | – | – |
| CC(=O)N1CCC(n2cc(-c3nc4cc(Nc5cc(C)nc(N6C[C@@H]7C[C@H]6CN7C)n5)ncc4s3)cn2)CC1 [Example 571] | 1000 to 5000 | 100 to 1000 | – | – |
| CC(=O)N1CCCc2c(-c3nc4cc(Nc5cc(C)nc(N6C[C@@H]7C[C@H]6CN7C)n5)ncc4s3)cccc21 [Example 573] | 1000 to 5000 | 100 to 1000 | – | – |
| Cc1cc(Nc2cc3nc(-c4ccc5c(c4)CN(S(C)(=O)=O)CC5)sc3cn2)nc(N2C[C@@H]3C[C@H]2CN3C)n1 [Example 574] | 5000 to 25000 | < 100 | – | – |
| Cc1cccnc1-c1nc2cc(Nc3ccc4c(n3)[C@](C)(N)CC4)ncc2s1 [Example 577] | 1000 to 5000 | – | – | < 100 |
| Cc1cccnc1-c1nc2cc(Nc3ccc4c(n3)[C@@H](N)CC4)ncc2s1 [Example 581] | 100 to 1000 | – | – | < 100 |
| Cc1cc(Nc2cc3nc(-c4cccc(-c5ncccc5C)c4)sc3cn2)nc(N2C[C@@H]3C[C@H]2CN3C)n1 [Example 586] | 100 to 1000 | < 100 | – | – |

Next, values leading:

| IC50 ([1]; Homo sapiens) [nM] | IC50 (HPK1; [2]) [nM] | IC50 [1] [nM] | IC50 (HPK1; [3]) [nM] | Structure (SMILES) |
| --- | --- | --- | --- | --- |
| – | < 100 | < 100 | – | Cc1cc(Nc2cc3nc(-c4cccc(C(=O)N(C)[C@H]5CCCOC5)c4)sc3cn2)nc(N2C[C@@H]3C[C@H]2CN3CCO)n1 [Example 543] |
| < 100 | < 100 | – | – | CCc1cc(C(=O)N(C)C)cc(-c2nc3cc(Nc4cc(C)nc(N5C[C@@H]6C[C@H]5CN6CCO)n4)ncc3s2)c1 [Example 546] |
| 100 to 1000 | < 100 | – | – | Cc1cc(Nc2cc3nc(-c4cccc(C(=O)N5CCC[C@H]5C)c4)sc3cn2)nc(N2C[C@@H]3C[C@H]2CN3CCO)n1 [Example 550] |
| < 100 | < 100 | – | – | Cc1cc(Nc2cc3nc(-c4cc(C(=O)N(C)C)cc(C(C)C)c4)sc3cn2)nc(N2C[C@@H]3C[C@H]2CN3CCO)n1 [Example 551] |
| < 100 | < 100 | – | – | Cc1cc(Nc2cc3nc(-c4cccc(C(=O)N(C)[C@H]5CCOC5)c4)sc3cn2)nc(N2C[C@@H]3C[C@H]2CN3CCO)n1 [Example 555] |
| < 100 | < 100 | – | – | CCN1C[C@@H]2C[C@H]1CN2c1nc(C)cc(Nc2cc3nc(-c4cccc(C(=O)NC5CCOC5)c4)sc3cn2)n1 (stereo partly shown) [Example 556] |
| 100 to 1000 | < 100 | – | – | Cc1cc(Nc2cc3nc(-c4cccc(C(=O)N5CCOCC5)c4)sc3cn2)nc(N2C[C@@H]3C[C@H]2CN3CCO)n1 [Example 565] |
| 100 to 1000 | < 100 | – | – | COCCN(C)C(=O)c1cccc(-c2nc3cc(Nc4cc(C)nc(N5C[C@@H]6C[C@H]5CN6C)n4)ncc3s2)c1 [Example 566] |
| < 100 | < 100 | – | – | Cc1cc(Nc2cc3nc(-c4cnn5c4CN(S(C)(=O)=O)CC5)sc3cn2)nc(N2C[C@@H]3C[C@H]2CN3C)n1 [Example 570] |
| 1000 to 5000 | < 100 | – | – | Cc1cc(Nc2cc3nc(-c4cnn(C5CCN(S(C)(=O)=O)CC5)c4)sc3cn2)nc(N2C[C@@H]3C[C@H]2CN3C)n1 [Example 572] |
| 100 to 1000 | < 100 | – | – | Cc1cc(Nc2cc3nc(-c4cnn5c4CNCC5)sc3cn2)nc(N2C[C@@H]3C[C@H]2CN3C)n1 [Example 575] |
| 1000 to 5000 | – | – | < 100 | Cc1cccnc1-c1nc2cc(Nc3ccc4c(n3)[C@@](C)(N)CC4)ncc2s1 [Example 576] |
| 100 to 1000 | < 100 | – | – | Cc1cc(Nc2cc3nc(-c4cncc(-c5ncc(F)cc5C)c4)sc3cn2)nc(N2C[C@@H]3C[C@H]2CN3C)n1 [Example 584] |
| 100 to 1000 | < 100 | – | – | Cc1cc(Nc2cc3nc(-c4cccc(-c5ncccc5C(C)C)c4)sc3cn2)nc(N2C[C@@H]3C[C@H]2CN3C)n1 [Example 585] |
